Laboratory results taken from ChEMBL document CHEMBL4406913, “INCB050465 (Parsaclisib), a Novel Next-Generation Inhibitor of Phosphoinositide 3-Kinase Delta (PI3Kδ)” (ACS Med Chem Lett, 2019).
Active and inactive are the calls of the source. The calls are words filed in the database; no cut-off is given here.

Columns and labels:
Pfeiffer [1] = assay: Cytotoxicity against human Pfeiffer cells assessed as reduction in protein binding adjusted cell viability incubated for 4 days by [3H]-thymidine incorporation based liquid scintillation counter method; format: functional
Pfeiffer [2] = assay: Cytotoxicity against human Pfeiffer cells assessed as reduction in cell viability incubated for 4 days by [3H]-thymidine incorporation based liquid scintillation counter method; format: functional
[3] = Fractional unbound in human plasma; format: ADME, cell-free
SU-DHL-6 = assay: Cytotoxicity against human SUDHL6 cells assessed as reduction in cell viability incubated for 4 days by celltiter glo luminescent assay; format: functional, cell-based; details: SU-DHL-6, 96 h
[4] = target: T1, Phosphatidylinositol 4,5-bisphosphate 3-kinase catalytic subunit delta isoform (Homo sapiens, UniProt O00329)
T1 sequence (O00329 whole entry): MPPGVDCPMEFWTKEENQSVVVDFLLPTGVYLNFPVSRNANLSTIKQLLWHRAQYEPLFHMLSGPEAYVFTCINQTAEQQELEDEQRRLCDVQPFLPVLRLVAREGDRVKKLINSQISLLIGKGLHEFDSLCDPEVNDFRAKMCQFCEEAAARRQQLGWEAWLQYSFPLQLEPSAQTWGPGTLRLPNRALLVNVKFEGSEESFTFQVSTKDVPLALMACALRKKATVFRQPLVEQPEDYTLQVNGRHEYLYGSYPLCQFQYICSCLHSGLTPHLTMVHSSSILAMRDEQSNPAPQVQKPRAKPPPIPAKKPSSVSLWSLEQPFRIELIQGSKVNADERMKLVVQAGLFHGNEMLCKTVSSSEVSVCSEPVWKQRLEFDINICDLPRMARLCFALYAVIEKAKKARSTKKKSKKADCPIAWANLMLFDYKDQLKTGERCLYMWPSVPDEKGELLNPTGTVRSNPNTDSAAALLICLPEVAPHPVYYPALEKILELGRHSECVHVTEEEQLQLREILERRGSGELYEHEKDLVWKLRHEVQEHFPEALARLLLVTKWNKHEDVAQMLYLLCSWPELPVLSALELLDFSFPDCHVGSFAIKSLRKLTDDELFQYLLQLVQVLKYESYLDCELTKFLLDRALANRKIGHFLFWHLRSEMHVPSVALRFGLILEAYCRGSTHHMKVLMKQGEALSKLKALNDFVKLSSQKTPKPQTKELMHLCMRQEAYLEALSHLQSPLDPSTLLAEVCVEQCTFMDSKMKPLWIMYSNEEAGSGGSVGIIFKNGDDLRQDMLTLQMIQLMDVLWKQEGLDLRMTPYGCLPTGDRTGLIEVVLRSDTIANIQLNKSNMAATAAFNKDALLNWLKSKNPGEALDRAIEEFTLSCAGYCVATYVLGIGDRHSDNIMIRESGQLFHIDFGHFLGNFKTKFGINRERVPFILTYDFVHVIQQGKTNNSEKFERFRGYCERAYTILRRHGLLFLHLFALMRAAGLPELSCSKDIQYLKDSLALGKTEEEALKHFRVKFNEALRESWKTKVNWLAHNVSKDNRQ
Description: (§1) Inhibition of PI3Kdelta (unknown origin) using D-myophosphatidylinositol 4,5-bisphosphate as substrate incubated for 120 mins by [gamma-33P]ATP based SPA assay

[5] = target: Voltage-gated inwardly rectifying potassium channel KCNH2 (Homo sapiens, UniProt Q12809); assay: Inhibition of human ERG channel at 30 uM incubated for 24 hrs in presence of [3H] Dofetilide by filter binding assay based scintillation counting analysis
Chain of Voltage-gated inwardly rectifying potassium channel KCNH2 (Q12809 whole entry): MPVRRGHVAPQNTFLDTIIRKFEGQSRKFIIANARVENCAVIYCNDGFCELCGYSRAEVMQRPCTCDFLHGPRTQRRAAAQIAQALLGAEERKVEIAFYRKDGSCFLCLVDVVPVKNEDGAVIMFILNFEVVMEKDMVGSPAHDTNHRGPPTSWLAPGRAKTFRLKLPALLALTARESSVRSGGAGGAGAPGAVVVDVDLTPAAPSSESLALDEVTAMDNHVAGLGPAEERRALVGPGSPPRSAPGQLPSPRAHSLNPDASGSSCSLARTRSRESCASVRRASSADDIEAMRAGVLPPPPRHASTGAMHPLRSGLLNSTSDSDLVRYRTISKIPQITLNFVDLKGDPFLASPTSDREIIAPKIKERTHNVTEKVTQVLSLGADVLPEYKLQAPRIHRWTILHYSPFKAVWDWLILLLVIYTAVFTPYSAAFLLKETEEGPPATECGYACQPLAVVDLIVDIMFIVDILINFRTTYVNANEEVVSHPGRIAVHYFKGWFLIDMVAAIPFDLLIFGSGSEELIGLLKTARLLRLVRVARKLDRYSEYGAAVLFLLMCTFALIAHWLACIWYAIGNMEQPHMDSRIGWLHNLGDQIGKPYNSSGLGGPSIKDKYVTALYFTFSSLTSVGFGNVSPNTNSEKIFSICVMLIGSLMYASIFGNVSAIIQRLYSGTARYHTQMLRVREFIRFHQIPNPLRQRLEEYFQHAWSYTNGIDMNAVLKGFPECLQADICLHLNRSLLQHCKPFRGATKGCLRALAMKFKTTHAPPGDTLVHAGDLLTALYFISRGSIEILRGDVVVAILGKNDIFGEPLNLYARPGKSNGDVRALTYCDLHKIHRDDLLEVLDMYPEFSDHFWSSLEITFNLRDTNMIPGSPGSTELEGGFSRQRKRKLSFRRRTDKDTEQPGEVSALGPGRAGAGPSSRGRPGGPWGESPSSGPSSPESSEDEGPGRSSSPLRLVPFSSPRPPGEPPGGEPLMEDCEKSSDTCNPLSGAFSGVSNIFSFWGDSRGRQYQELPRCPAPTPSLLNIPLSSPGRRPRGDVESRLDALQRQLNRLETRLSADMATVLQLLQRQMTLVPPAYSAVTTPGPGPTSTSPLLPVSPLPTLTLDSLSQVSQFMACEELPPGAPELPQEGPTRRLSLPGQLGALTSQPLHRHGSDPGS

[6] = AUC in cynomolgus monkey at 1 mg/kg, po measured for 24 hrs by LC/MS/MS analysis; format: ADME, organism-based, Macaca fascicularis; details: in vivo
[7] = AUC in rat at 5 mg/kg, po measured for 24 hrs by LC/MS/MS analysis; format: ADME, organism-based; details: in vivo
[8] = Toxicity in dog assessed as testicular lesions observed on day 28; parameters: species or system Canis lupus familiaris; details: in vivo
[9] = Permeability across apical to basolateral side in human Caco2 cells at 50 uM incubated for 120 mins by LC/MS analysis; format: ADME, cell-based; details: Caco-2, read-out: permeability
[10] = AUC in rat at 4 mg/kg, po measured for 24 hrs by LC/MS/MS analysis; format: ADME, organism-based; details: in vivo
HEK293 = assay: Cytotoxicity against human HEK293 cells assessed as reduction in cell viability at 20 uM incubated for 72 hrs by celltiter glo luminescent assay; format: cell-based; details: hek293, 72 h
[11] = Half life in cynomolgus monkey at 2 mg/kg, po measured for 24 hrs by LC/MS/MS analysis; format: ADME, organism-based, Macaca fascicularis; details: in vivo
[12] = AUC in cynomolgus monkey at 2 mg/kg, po measured for 24 hrs by LC/MS/MS analysis; format: ADME, organism-based, Macaca fascicularis; details: in vivo
[13] = target: T2, Phosphatidylinositol 4,5-bisphosphate 3-kinase catalytic subunit delta isoform (Homo sapiens) (UniProt O00329)
T2 sequence (whole entry): T1 sequence (O00329 whole entry)
Description: as §1

[14] = Intrinsic clearance in human liver microsomes at 1 uM measured upto 30 mins by LC/MS analysis; format: ADME, Microsome; details: read-out: CLH (converted)
[15] = Toxicity in Beagle dog; parameters: species or system Canis lupus familiaris; details: in vivo
[16] = Half life in cynomolgus monkey at 10 mg/kg, po measured for 24 hrs by LC/MS/MS analysis; format: ADME, organism-based, Macaca fascicularis; details: in vivo
[17] = AUC in cynomolgus monkey at 10 mg/kg, po measured for 24 hrs by LC/MS/MS analysis; format: ADME, organism-based, Macaca fascicularis; details: in vivo

Row | Structure (SMILES) | IC50 (Pfeiffer [1]) | IC50 (Pfeiffer [2]) | fraction unbound [3] | IC50 (SU-DHL-6) | IC50 [4] | further results
1 | COc1c([C@H](C)Nc2ncnc3[nH]cnc23)cc(Cl)c(C)c1-c1ccc(S(C)(=O)=O)cc1 | 3100 nM | 130 nM | 0.013 | 170 nM |  | 
2 | C[C@H](Nc1ncnc2[nH]cnc12)c1cc(Cl)c2cccnc2c1-c1cccc(F)c1 | 1000 nM | 50 nM | 0.014 | 140 nM | 8.4 nM | 
3 | COc1c([C@H](C)n2nc(C)c3c(N)ncnc32)cc(Cl)c(C#N)c1C1CN(C[C@H](C)O)C1 | 3.6 nM | 1.5 nM | 0.42 | 2.4 nM | 1.9 nM | inhibition (INH) [5]: Active; AUC at 24 h [6]: 4.1 µM·h; AUC at 24 h [7]: 6.8 µM·h; Activity [8]: Toxic
4 | COc1c([C@H](C)Nc2ncnc3[nH]cnc23)cc(Cl)c(C)c1-c1cncc(S(C)(=O)=O)c1 | 40 nM | 9.5 nM | 0.12 | 14 nM | 1.7 nM | Papp A→B at 2 h, 50 µM [9]: 0.5 ×10⁻⁶ cm/s; AUC at 24 h [7]: 3 µM·h
5 | COc1c([C@H](C)Nc2ncnc(N)c2C#N)cc(Cl)c(C)c1-c1ccc(C(=O)N(C)C)cn1 | 61 nM | 17 nM | 0.22 | 21 nM | 1.8 nM | inhibition (INH) [5]: Not Active; AUC at 24 h [10]: 7.7 µM·h; Activity (HEK293): Non-Toxic; half-life [11]: 12 min; AUC at 24 h [12]: 0.2 µM·h
6 | CC(Nc1ncnc2[nH]cnc12)c1ccc2cccnc2c1-c1cccc(F)c1 (racemic) | 3200 nM | 490 nM | 0.1 | 1800 nM | 430 nM | 
7 | Cc1c(Cl)cc(C(C)Nc2ncnc3[nH]cnc23)c(-c2cccc(F)c2)c1C#N (racemic) |  | 660 nM | 0.0064 | 1300 nM |  | 
8 | COc1c([C@H](C)n2nc(C)c3c(N)ncnc32)cc(Cl)c(C)c1-c1ccnc(C(=O)N(C)C)c1 | 61 nM | 8.6 nM | 0.089 | 7.4 nM | 0.93 nM | 
9 | COc1c([C@H](C)Nc2ncnc3[nH]cnc23)cc(Cl)c(C)c1-c1cnn(C)c1 | 950 nM | 120 nM | 0.029 | 100 nM | 2.8 nM | 
10 | COc1c(C(C)n2nc(C)c3c(N)ncnc32)cc(Cl)c(C)c1C1CCN(C)CC1 (racemic) | 53 nM | 11 nM | 0.19 | 44 nM | 11 nM | 
11 | COc1c([C@H](C)n2nc(C)c3c(N)ncnc32)cc(Cl)c(C)c1C1CNC(=O)C1 (stereo partly drawn) | 480 nM | 51 nM | 0.1 | 13 nM | 2.4 nM | inhibition (INH) [5]: Not Active; Papp A→B at 2 h, 50 µM [9]: 2.8 ×10⁻⁶ cm/s; inhibition [13]: inactive; CLint scaled at 1 µM [14]: 11.7 mL/min/kg
12 | CCOc1c([C@H](C)n2nc(C)c3c(N)ncnc32)cc(Cl)c(C#N)c1C1CNC(=O)C1 (stereo partly drawn) | 4.1 nM | 1.7 nM | 0.23 | 0.47 nM | < 1 nM | Papp A→B at 2 h, 50 µM [9]: 0.3 ×10⁻⁶ cm/s; inhibition [13]: inactive; CLint scaled at 1 µM [14]: 11.7 mL/min/kg
13 | CCOc1c([C@H](C)n2nc(C)c3c(N)ncnc32)cc(Cl)c(C)c1C1CNC(=O)C1 (stereo partly drawn) | 47 nM | 4.8 nM | 0.065 | 2.1 nM | 1.4 nM | Papp A→B at 2 h, 50 µM [9]: 1.9 ×10⁻⁶ cm/s; inhibition [13]: inactive; CLint scaled at 1 µM [14]: 11.7 mL/min/kg
14 | Cc1c(Cl)cc(C(C)Nc2ncnc3[nH]cnc23)c(-c2cccc(F)c2)c1-c1cnn(C)c1 (racemic) |  | 8.7 nM |  | 60 nM | 5.3 nM | 
15 | COc1c([C@H](C)Nc2ncnc(N)c2C#N)cc(Cl)c(C)c1-c1cncc(S(C)(=O)=O)c1 | 17 nM | 3.4 nM | 0.14 | 3.1 nM | 0.99 nM | inhibition (INH) [5]: Active; Papp A→B at 2 h, 50 µM [9]: 7.9 ×10⁻⁶ cm/s; AUC at 24 h [10]: 10 µM·h; Activity (HEK293): Toxic
16 | C[C@H](Nc1ncnc2[nH]cnc12)c1cc(Cl)c2ccnnc2c1-c1cccc(F)c1 | 270 nM | 26 nM | 0.059 | 73 nM |  | Activity [15]: Toxic; AUC at 24 h [7]: 13 µM·h
17 | Cc1csc2nc([C@H](C)Nc3ncnc4[nH]cnc34)c(-c3cccc(F)c3)c(=O)n12 [DEZAPELISIB] | 66 nM | 14 nM | 0.17 | 18 nM |  | AUC at 24 h [7]: 4.4 µM·h; half-life [16]: 78 min; AUC at 24 h [17]: 4.9 µM·h
18 | COc1c(C(C)n2ncc3c(N)ncnc32)cc(Cl)c(C)c1-c1ccnc(C(=O)N(C)C)c1 (racemic) | 4500 nM | 610 nM | 0.092 | 840 nM | 120 nM | 
